“And” between values parts separate entries of the source, which are not always exact repeats. Identical values can stand only once. “Also recorded” adds a separate entry of the source. Counter-ions that a name gives are not always drawn. Like-named read-outs stand apart in the source and are kept apart here. Each block holds one molecule with its values, some of them ahead of it.
How the values were obtained:
[1] = test system: A3AR; details: background property of the receptor, no reference given; listed as ADO; cited from earlier work
[2] = test system: T1, A2BAR; details: background property of the receptor, no reference given, cited from earlier work
T1 construct: expressed in transfected cells; host or cells: HEK293

[3] = test system: T2, human A1AR; assay: A1AR cAMP assay, HEK293 A1AR Nomad cell line (Innoprot), agonist mode; type: cell-based; details: compounds at 10 µM, normalized to 10 µM NECA (100%) and vehicle DMSO (0%)
T2 construct: host or cells: HEK293 A1AR Nomad cell line
Text: For screening of the initial compounds predicted by machine learning models to activate A1AR receptor, we used the HEK293 A1AR Nomad cell line, which consists of HEK293 cells stably expressing human A1AR with no tag. This cell line has been designed to assay compounds or analyze their capability to modulate the A1AR. When the agonist binds to A1AR in this engineered cell line a Go protein is activated, which in turn, triggers a cellular response mediated by cAMP inhibition. This cellular response can be measured by quantifying the increase in fluorescence intensity and its cellular distribution. An agonist assay was performed for 29 compounds (predicted to be active by the machine learning model) in the human recombinant HEK293 A1AR Nomad cell line using a fluorescence-based assay. An agonist effect of the compounds was measured by quantifying the changes in the fluorescence emission cAMP Nomad biosensor, this elevation of fluorescence was analyzed using a plate reader Synergy 2 (Biotek, Winooski, VT). The error bars represent the standard deviation among the three replicate wells. The 29 compounds were tested at 10 μM using nonselective AR agonist adenosine-5′-N-ethyluronamide (NECA) at 10 μM as a reference.

[4] = test system: human A2BAR; assay: Radioligand displacement binding, [3H]DPCPX
[5] = molecular target: T3, human A2AAR (Homo sapiens, UniProt P29274); assay: Radioligand displacement binding, [3H]ZM241385, HEK293 membranes; details: mean ± standard error, three independent experiments; for Ki: read-out: Ki, A2A ([3H]ZM241385)
T3 construct: expressed in transfected cells; host or cells: HEK293
T3 sequence (P29274 whole entry): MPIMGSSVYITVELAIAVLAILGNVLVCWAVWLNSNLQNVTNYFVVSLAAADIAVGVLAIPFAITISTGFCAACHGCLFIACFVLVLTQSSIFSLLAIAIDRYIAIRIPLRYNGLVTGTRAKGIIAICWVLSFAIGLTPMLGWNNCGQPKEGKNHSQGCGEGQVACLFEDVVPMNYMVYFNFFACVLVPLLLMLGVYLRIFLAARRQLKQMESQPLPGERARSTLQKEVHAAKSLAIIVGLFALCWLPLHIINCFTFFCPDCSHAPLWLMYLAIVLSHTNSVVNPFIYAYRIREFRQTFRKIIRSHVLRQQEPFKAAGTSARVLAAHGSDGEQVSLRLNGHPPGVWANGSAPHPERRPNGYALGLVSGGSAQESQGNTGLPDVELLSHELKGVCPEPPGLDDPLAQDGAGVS
Experimental: (§1) HEK293 cells stably expressing the human A1AR, A2AAR, A3AR were cultured in DMEM supplemented with 10% fetal bovine serum, 100 Units/ml penicillin, 100 µg/ml streptomycin, and 2 µmol/ml glutamine. To prepare cell membranes, cells were detached from culture plates by scraping into cold PBS and centrifuged at 250 g for 5 min. The pellets were resuspended in ice-cold PBS buffer (pH 7.4) and then homogenized. After homogenization and suspension, cells were centrifuged at 1,000 g for 10 min, and the pellet was discarded. The suspension was then re-centrifuged at 20,000 g for 60 min at 4°C. […] The aliquots of membrane preparations were stored at −80°C until the binding experiments. For displacement binding assays, membrane preparations (20 µg proteins/tube) were incubated at 25°C for 60 min with a final concentration of [^3H]DPCPX (0.5 nM), [^3H]ZM241385 (1.0 nM), […] [^125I]I-AB-MECA (0.1 nM) for A1AR, A2AAR, A3AR, respectively, in a mixture containing 50 µl of increasing concentrations of a test ligand in a total assay volume of 200 µl of 50 mM Tris HCl, pH 7.4, containing 10 mM MgCl2. Nonspecific binding was determined using 100 µM of XAC. The reaction was terminated by filtration with GF/B filters using a Brandel (Gaithersburg, MD) 24-channel harvester. Filters were placed in scintillation vials containing 5 ml of Hydrofluor scintillation buffer (National Diagnostics, Atlanta, GA) and counted using a Tricarb 2810TR liquid scintillation counter (PerkinElmer, Waltham, MA).

[6] = test system: T1, A2BAR; assay: cAMP assay in AR-expressing HEK293 cells (ALPHAScreen), A2BAR; type: cell-based
Experimental: (§2) HEK293 cells were grown in 96-well plates in DMEM supplemented with 10% fetal bovine serum, 100 Units/ml penicillin, 100 µg/ml streptomycin, and 2 µmol/ml glutamine. […] For A1AR and A3AR, after incubation with agonists for 20 min, forskolin (10 µM) was added and the mixture incubated for an additional 15 min. The reaction was terminated upon removal of the supernatant and addition of 100 µl Tween-20 (0.3%). Intracellular cAMP levels were measured with an ALPHAScreen cAMP assay kit as instructed by the manufacturer (PerkinElmer).

[7] = molecular target: T3, human A2AAR; assay: cAMP assay in AR-expressing HEK293 cells (ALPHAScreen), A2AAR; type: cell-based; details: for cAMP, A2AAR activity (stimulation of cAMP) / Emax: A2AAR-expressing HEK293 cells; for Emax: reference full agonist = 100% stimulation; for EC50: HEK293 cells expressing human A2AAR, absence of antagonist, read-out: EC50, stimulation of cAMP, A2AAR
Experimental: as §2

[8] = test system: T2, human A1AR; assay: Radioligand displacement binding, [3H]DPCPX, HEK293 membranes; details: mean ± standard error, three independent experiments
Experimental: as §1

[9] = molecular target: T4, human A3AR (Homo sapiens, UniProt P0DMS8); assay: Radioligand displacement binding, [125I]I-AB-MECA, HEK293 membranes; details: for Ki: read-out: Ki, A3 ([125I]I-AB-MECA)
T4 sequence (P0DMS8 1-318): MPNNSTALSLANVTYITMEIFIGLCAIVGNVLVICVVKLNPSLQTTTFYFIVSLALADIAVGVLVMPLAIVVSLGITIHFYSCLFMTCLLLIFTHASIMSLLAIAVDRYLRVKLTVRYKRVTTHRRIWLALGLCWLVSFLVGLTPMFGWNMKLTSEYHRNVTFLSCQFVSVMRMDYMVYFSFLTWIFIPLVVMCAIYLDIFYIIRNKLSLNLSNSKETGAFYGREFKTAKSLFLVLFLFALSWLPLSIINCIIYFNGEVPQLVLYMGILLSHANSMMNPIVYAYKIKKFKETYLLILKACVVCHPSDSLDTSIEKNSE
Experimental: as §1

[10] = test system: T5, A1AR; assay: cAMP assay in AR-expressing HEK293 cells (ALPHAScreen), A1AR; type: cell-based, human; details: A1AR-expressing HEK cells, cAMP inhibition, Cl-ENBA reference full agonist
T5 construct: expressed in transfected cells; host or cells: HEK293
Experimental: as §2

[11] = molecular target: T6, human A1 receptor (Homo sapiens, UniProt P30542); assay: A1AR calcium influx assay in BA/F3 cells (Eurofins); details: maximum concentration tested 20 µM
T6 sequence (P30542 1-326): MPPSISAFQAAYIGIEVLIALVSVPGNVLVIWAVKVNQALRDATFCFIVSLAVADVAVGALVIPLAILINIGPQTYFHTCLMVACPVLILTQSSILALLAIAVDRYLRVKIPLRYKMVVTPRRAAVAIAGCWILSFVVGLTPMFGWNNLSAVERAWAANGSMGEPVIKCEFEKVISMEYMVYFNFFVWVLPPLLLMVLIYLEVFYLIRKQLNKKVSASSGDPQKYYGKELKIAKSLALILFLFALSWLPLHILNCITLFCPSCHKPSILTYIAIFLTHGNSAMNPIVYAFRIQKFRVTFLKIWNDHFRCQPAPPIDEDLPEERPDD
Experimental: This assay was performed using the screening services of Eurofins. Evaluation of the agonist activity of compounds at the human A1 receptor expressed in BA/F3 cells was determined by measuring their effect on cytosolic Ca^2+ ion mobilization using a fluorimetric detection method. The cells were suspended in HBSS buffer (Invitrogen) complemented with 20 mM Hepes and then distributed in microplates at a density of 5 × 10^4 cells/well. The fluorescent probe (Fluo8, AAT Bioquest, San Francisco, CA) mixed with probenicid in HBSS buffer (Invitrogen) complemented with 20 mM Hepes (Millipore, Burlington, MA) (pH 7.4) was then added into each well and equilibrated with the cells for 60 min at 30°C. Thereafter, the assay plates were positioned in a microplate reader (FlipR Tetra, Molecular Devices, San Jose, CA), which was used for the addition of the test compound, reference agonist or HBSS buffer (basal control), and for the measurements of changes in fluorescence intensity that varies proportionally to the free cytosolic Ca^2+ ion concentration.

[12] = test system: T7, A1AR; assay: PathHunter β-Arrestin assay (Eurofins/DiscoverX), agonist mode; type: cell-based; details: maximum concentration 20 µM; normalized to control agonist CPA and vehicle
T7 construct: host or cells: A1AR-bla U2OS
Experimental: PathHunter cell lines were expanded from freezer stocks according to standard procedures. […] For agonist determination, cells were incubated with sample to induce response. Intermediate dilution of sample stocks was performed to generate 5X sample in assay buffer. […] Vehicle concentration was 1%. […] Microplates were read following signal generation with a PerkinElmer Envision™ instrument for chemiluminescent signal detection.
(§3) This parental cell line stably expresses a beta‐arrestin/TEV protease fusion protein and the beta‐lactamase reporter gene under the control of a UAS response element. […] We also used a secondary assay PathHunter® β-Arrestin assay, which monitors the activation of A1AR in a homogenous, non-imaging assay format using a technology developed by DiscoverX called Enzyme Fragment Complementation (EFC) with β-galactosidase (β-Gal) as the functional reporter.

[13] = test system: T7, A1AR; assay: A1AR-bla U2OS agonist screen (beta-arrestin/TEV, beta-lactamase reporter; Thermo Fisher); type: cell-based
Experimental: A1AR-bla U2OS cells are thawed and resuspended in Assay Media (Freestyle media) to a concentration of 312,500 cells/ml. 32 μl of cell suspension (10,000 cells) was added to each well of a 384-well TC-Treated assay plate. Cells in Assay Media were incubated for 16–24 h in the plate at 37°C/5% CO2 in a humidified incubator. 4 μl aliquots of a 10X serial dilution of NECA (control agonist starting concentration, 500 nM) or compounds were added to appropriate wells of the plate. 4 μl of Assay Media was added to all wells to bring the final assay volume to 40 μl. The plate was incubated for 5 h at 37°C/5% CO2 in a humidified incubator. 8 μl of 1 μM substrate + Solution D Loading Solution was added to each well and the plate was incubated for 2 h at room temperature. The plate was read on a fluorescence plate reader.
as §3

[14] = molecular target: T4, human A3AR; assay: cAMP assay in AR-expressing HEK293 cells (ALPHAScreen), A3AR; type: cell-based; details: for cAMP, A3AR agonist activity: A3AR-expressing cells, MRS5698 reference full agonist
Experimental: as §2

[15] = molecular target: A2AAR; details: read-out: Ki, A2AAR; A2AAR antagonist; quoted without method, no reference given; cited from earlier work
[16] = mean ± standard error, three independent experiments

Compound: Nc1ncnc2c1ncn2[C@@H]1O[C@H](CO)[C@@H](O)[C@H]1O [Adenosine]
Adenosine affinity, A3AR [1]: relatively lower affinity | Adenosine affinity, A2BAR [2]: Low affinity | Adenosine affinity, A2BAR ([2]; listed as ADO): relatively lower affinity

Compound: Cc1ccc(S(=O)(=O)/C=C/C#N)cc1 [BAY 11-7082, (E)-3-(4-methylphenylsulfonyl)-2-propenenitrile]
normalized activity with respect to the positive control [3]: 95.74%

Inhibition of specific binding, % inhibition at 100 µM, A2B ([3H]DPCPX) [4]: <10% | Inhibition of specific binding, % inhibition at 100 µM, A2A ([3H]ZM241385) ([5]; 100 µM): No significant binding inhibition | inhibition at 100 µM ([5]; read-out: Inhibition of specific binding, % inhibition at 100 µM, A2A ([3H]ZM241385), 100 µM): 31.2 ± 5.6% | cAMP, A2AAR activity (stimulation of cAMP) [7]: Active | Emax [7]: 67% | EC50 [7]: 2.8 µM and 2.78 µM | Inhibition of specific binding, % inhibition at 100 µM, A1 ([3H]DPCPX) [8]: 36.9 ± 3.4% | Inhibition of specific binding, % inhibition at 100 µM, A1 ([3H]DPCPX) ([8]; listed as crisaborole): weakly binding | Inhibition of specific binding, % inhibition at 100 µM, A3 ([125I]I-AB-MECA) ([9]; 100 µM, mean ± standard error, three independent experiments): No significant binding inhibition | inhibition at 100 µM ([9]; read-out: Inhibition of specific binding, % inhibition at 100 µM, A3 ([125I]I-AB-MECA), 100 µM, mean ± standard error, three independent experiments): 28.8 ± 16.3% | A1AR agonist activity, calcium influx assay [11]: no activity | A1AR agonist activity, calcium influx assay ([11]; listed as crisaborole): without activity
Compound: N#Cc1ccc(Oc2ccc3c(c2)COB3O)cc1 [Crisaborole]
cAMP Emax, A2BAR ([6]; NECA reference full agonist (100%)): Emax = 17% | cAMP accumulation, A2BAR ([6]; weaker than at the A2AAR): increased cAMP accumulation | normalized activity with respect to the positive control [3]: 98.52% | cAMP, A1AR agonist activity [10]: Not active | cAMP, A1AR agonist activity ([10]; listed as crisaborole): without activity | activation of A1AR, PathHunter β-Arrestin assay [12]: no activation; also recorded: without activity; also recorded: no agonist activity | activation of A1AR, A1AR-bla U2OS cells [13]: no activation; also recorded: without activity; also recorded: no agonist activity

Inhibition of specific binding, % inhibition at 100 µM, A2B ([3H]DPCPX) [4]: <10% | Ki, A2A ([3H]ZM241385) [5]: in the µM range | Ki [5]: 22.9 ± 4.3 µM | cAMP, A2AAR activity (stimulation of cAMP) [7]: Not active | cAMP, A2AAR activity (stimulation of cAMP) ([7]; listed as febuxostat): not | Inhibition of specific binding, % inhibition at 100 µM, A1 ([3H]DPCPX) [8]: 29.8 ± 5.2% | Ki, A3 ([125I]I-AB-MECA) [9, 16]: in the µM range | Ki [9, 16]: 67.3 ± 45.7 µM
Compound: Cc1nc(-c2ccc(OCC(C)C)c(C#N)c2)sc1C(=O)O [Febuxostat]
normalized activity with respect to the positive control [3]: 94.53% | cAMP, A1AR agonist activity [10]: Not active

Compound: Fc1ccc([C@@H]2CCNC[C@H]2COc2ccc3c(c2)OCO3)cc1 [Paroxetine, Paroxetine Hydrochloride]
Ki, A2A ([3H]ZM241385) [5]: in the µM range | Ki [5]: 40.4 ± 9.8 µM | cAMP, A2AAR activity (stimulation of cAMP) [7]: weak activation; also recorded: Active | Emax [7]: 69% | EC50 [7]: 14 µM | Inhibition of specific binding, % inhibition at 100 µM, A1 ([3H]DPCPX) [8]: 9.1 ± 3.9% | normalized activity with respect to the positive control [3]: 68.0% | Kd ([9]; as worded in the Discussion): 14.5 ± 9.7 µM | Ki, A3 ([125I]I-AB-MECA) [9, 16]: in the µM range | Ki [9, 16]: 14.5 ± 9.7 µM | cAMP, A1AR agonist activity [10]: Not active | agonist activity at the human A3AR at 100 µM ([14]; 100 µM): did not show any agonist activity | cAMP, A3AR agonist activity [14]: no activation; also recorded: Not active | cAMP, A3AR agonist activity ([14]; listed as paroxetine): Lack of agonist effect | activation of A1AR, A1AR-bla U2OS cells [13]: no activation

Compound: CCN(CC)CCOc1ccc2c(c1)C(=O)c1cc(OCCN(CC)CC)ccc1-2 [Tilorone Hydrochloride]
normalized activity with respect to the positive control [3]: 55.9%

Compound: CCn1c(=O)c2c(nc(/C=C/c3ccc(OC)c(OC)c3)n2C)n(CC)c1=O [istradefylline, Istradefylline]
Ki [15]: 0.0022 µM

— publication PMC9257522, “Machine Learning for Discovery of New ADORA Modulators” (Frontiers in Pharmacology, 2022)
